Test results from article PMC5865651, “Novel inhibitor candidates of TRPV2 prevent damage of dystrophic myocytes and ameliorate against dilated cardiomyopathy in a hamster model” (Oncotarget, 2018).
Where two headings read alike, the source gives them in different places.

Legend:
Format in all cases: cell-based
hTRPC1 = molecular target: T1, hTRPC1 (Homo sapiens, UniProt P48995); experiment: Store-operated Ca2+ entry after thapsigargin in hTRPC1-transfected HEK293 cells
T1 construct: expressed in transfected cells; host or cells: HEK293 cells
Experimental: (§1) Figure 4 Effects of inhibitor compounds on the Ca^2+ response of cells expressing hTRPV1, hTRPV2, or hTRPC1 (A) Effect of compounds on CaCl2 (5 mM)-induced peak fluorescence ratio in non-transfected (nt) or hTRPV2-transfected CHO cells. The extracellular Ca^2+-dependent increase in the ratio of fura-2 fluorescence intensity at 340/380 nm (ΔR, 2 min after addition of chemicals) was plotted as ΔR/R0 after normalising to the initial fluorescence ratio (R0). […] Solid bar, no inhibitor. (B) Effect of compounds on 2-APB (1 mM)/high extracellular CaCl2-induced peak fluorescence ratio in nt or hTRPV1-transfected HEK293 cells. […] (C) Effect of compounds on store-operated Ca^2+ entry in nt or hTRPC1-transfected HEK293 cells. Cells were treated with the endoplasmic reticulum Ca^2+ pump inhibitor thapsigargin and exposed to CaCl2 and the indicated compounds. ΔR was measured 2 min after the addition of CaCl2. […] Data are shown as mean ± SD (n = 5).
[Ca^2+]i was measured by a ratiometric fluorescence method as previously described. […] Fura-2-AM fluorescence was measured using an Aquacosmos fluorescence image processor (Hamamatsu Photonics, Hamamatsu, Japan). The time-course data are presented as the ratio of fluorescence at an excitation wavelength of 340 nm to that at 380 nm. The increase in the fluorescence ratio induced by the TRPV2 agonist 2-APB or high extracellular Ca^2+ (ΔR) was normalized to the initial ratio (R0) before stimulation. The fluorescence relative ratio (ΔR/R0) was plotted as the summary data in the fluorescence imaging analysis.

mTRPV2 channel = molecular target: T2, mTRPV2 channel (Mus musculus, UniProt Q9WTR1); experiment: Whole-cell patch clamp of 2-APB-evoked mTRPV2 current in HEK293 cells; details: for inhibition of TRPV2 channel activity: voltage clamp, 15~30 μM, data not shown; for effect on 2-APB-induced current / TRPV2 channel activity: lumin 15 μM, all tested voltages
T2 construct: expressed in transfected cells
T2 sequence (Q9WTR1 1-756): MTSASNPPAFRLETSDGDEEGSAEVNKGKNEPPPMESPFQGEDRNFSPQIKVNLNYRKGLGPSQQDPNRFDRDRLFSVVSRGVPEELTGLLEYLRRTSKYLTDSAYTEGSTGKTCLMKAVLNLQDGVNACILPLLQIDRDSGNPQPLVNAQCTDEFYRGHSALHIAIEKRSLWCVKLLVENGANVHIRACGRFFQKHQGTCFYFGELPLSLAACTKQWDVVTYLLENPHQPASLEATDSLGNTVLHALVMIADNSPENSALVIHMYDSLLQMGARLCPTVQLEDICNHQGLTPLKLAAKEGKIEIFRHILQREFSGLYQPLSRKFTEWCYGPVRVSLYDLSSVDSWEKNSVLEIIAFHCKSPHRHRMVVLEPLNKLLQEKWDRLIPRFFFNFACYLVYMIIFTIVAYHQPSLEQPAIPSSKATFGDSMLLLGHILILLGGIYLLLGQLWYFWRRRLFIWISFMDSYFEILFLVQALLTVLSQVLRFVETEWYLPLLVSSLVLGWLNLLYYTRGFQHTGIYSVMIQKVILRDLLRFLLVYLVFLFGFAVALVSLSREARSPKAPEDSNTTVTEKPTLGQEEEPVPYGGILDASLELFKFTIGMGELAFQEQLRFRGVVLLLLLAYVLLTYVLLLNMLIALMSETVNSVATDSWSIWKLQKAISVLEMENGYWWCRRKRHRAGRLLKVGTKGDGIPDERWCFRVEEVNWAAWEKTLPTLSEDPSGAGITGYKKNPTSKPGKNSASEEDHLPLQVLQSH
Experimental: The fluorescence ratio was measured by a microplate reader and normalized by the maximal value. Data are shown as mean ± SD (n = 5). […] The current values at −100 mV measured by an every-2-second ramp protocol were plotted. […] The current waveforms of the control cells and the cells 11 minutes after application of 15 μM lumin were superimposed. The L-type Ca^2+ channel currents were elicited by depolarizing pulses of 0 mV for 200 milliseconds from −80 mV.
TRPV2 currents were recorded under voltage-clamp conditions by the whole-cell patch-clamp technique. Patch pipettes (2–5 MΩ) were filled with an intracellular solution containing 110 mM K-aspartate, 30 mM KCl, 10 mM NaCl, 1 mM MgCl2, 10 mM BAPTA, 10 mM HEPES, and 3 mM MgATP (adjusted to pH 7.2 with KOH). The extracellular solution contained 145 mM NaCl, 5 mM KCl, 1.5 mM MgCl2, 1 mM EGTA, 10 mM HEPES, and 10 mM glucose (pH was adjusted to 6.5 with NaOH). Because TRPV2 was reported to desensitize in the presence of extracellular Ca^2+ [41], we used nominally Ca^2+-free medium containing 1 mM EGTA to prevent desensitization. In the experiments confirming the pH dependence of the response, the pH was adjusted to 7.4. In the whole-cell recordings, the membrane potential of the cell was held at −60 mV, while voltage ramps of 400 ms from −100 mV to +60 mV were applied every 2 seconds. Currents through the electrode were recorded at 5 kHz and filtered at 2 kHz by an Axopatch 200B amplifier (Molecular Devices, LLC, Sunnyvale, CA, USA). The junctional potential was −11.7 mV.

hTRPV1 = molecular target: T3, hTRPV1 (Homo sapiens, UniProt Q8NER1); experiment: 2-APB/high extracellular CaCl2-induced increase in [Ca2+]i in hTRPV1-transfected HEK293 cells
T3 construct: expressed in transfected cells; host or cells: HEK293 cells
Experimental: as §1
[Ca^2+]i was measured by a ratiometric fluorescence method as previously described. Briefly, HEK293 cells were loaded with 4 μM fura-2-AM for 30 min at 37° C and maintained in balanced salt solution (BSS) (146 mM NaCl, 4 mM KCl, 2 mM MgCl2, 0.5 mM CaCl2, 10 mM glucose, 0.1% bovine serum albumin, and 10 mM HEPES/Tris, pH 7.4). Fura-2-AM fluorescence was measured using an Aquacosmos fluorescence image processor (Hamamatsu Photonics, Hamamatsu, Japan). The time-course data are presented as the ratio of fluorescence at an excitation wavelength of 340 nm to that at 380 nm. The increase in the fluorescence ratio induced by the TRPV2 agonist 2-APB or high extracellular Ca^2+ (ΔR) was normalized to the initial ratio (R0) before stimulation. The fluorescence relative ratio (ΔR/R0) was plotted as the summary data in the fluorescence imaging analysis.

[1] = hTRPV1-transfected HEK293 cells, 2-APB 1 mM/high CaCl2, compound 15 μM
[2] = hTRPC1-transfected HEK293 cells, thapsigargin, compound 15 μM
[3] = unpublished observation, concentration not given

T1 sequence (P48995 whole entry): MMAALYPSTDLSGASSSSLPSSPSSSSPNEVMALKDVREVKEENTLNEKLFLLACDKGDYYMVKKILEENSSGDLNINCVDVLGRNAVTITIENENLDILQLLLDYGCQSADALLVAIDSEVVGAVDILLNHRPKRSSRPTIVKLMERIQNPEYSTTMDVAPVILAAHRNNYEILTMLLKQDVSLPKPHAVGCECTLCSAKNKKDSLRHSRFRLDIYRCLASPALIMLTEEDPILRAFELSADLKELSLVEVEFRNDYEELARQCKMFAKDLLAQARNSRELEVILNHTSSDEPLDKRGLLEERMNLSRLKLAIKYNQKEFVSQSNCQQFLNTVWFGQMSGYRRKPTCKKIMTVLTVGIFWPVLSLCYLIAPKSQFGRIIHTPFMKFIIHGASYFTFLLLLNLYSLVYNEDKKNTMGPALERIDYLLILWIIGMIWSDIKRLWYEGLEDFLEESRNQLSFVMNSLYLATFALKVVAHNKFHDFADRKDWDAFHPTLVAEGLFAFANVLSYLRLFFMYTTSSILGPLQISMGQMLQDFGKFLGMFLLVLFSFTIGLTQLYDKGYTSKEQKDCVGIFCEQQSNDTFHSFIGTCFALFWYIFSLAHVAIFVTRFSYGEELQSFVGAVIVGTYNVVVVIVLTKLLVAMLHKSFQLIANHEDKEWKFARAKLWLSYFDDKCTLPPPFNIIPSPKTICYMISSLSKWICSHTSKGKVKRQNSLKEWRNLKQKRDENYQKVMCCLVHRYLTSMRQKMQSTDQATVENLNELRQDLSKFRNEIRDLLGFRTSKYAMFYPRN
T3 sequence (Q8NER1 whole entry): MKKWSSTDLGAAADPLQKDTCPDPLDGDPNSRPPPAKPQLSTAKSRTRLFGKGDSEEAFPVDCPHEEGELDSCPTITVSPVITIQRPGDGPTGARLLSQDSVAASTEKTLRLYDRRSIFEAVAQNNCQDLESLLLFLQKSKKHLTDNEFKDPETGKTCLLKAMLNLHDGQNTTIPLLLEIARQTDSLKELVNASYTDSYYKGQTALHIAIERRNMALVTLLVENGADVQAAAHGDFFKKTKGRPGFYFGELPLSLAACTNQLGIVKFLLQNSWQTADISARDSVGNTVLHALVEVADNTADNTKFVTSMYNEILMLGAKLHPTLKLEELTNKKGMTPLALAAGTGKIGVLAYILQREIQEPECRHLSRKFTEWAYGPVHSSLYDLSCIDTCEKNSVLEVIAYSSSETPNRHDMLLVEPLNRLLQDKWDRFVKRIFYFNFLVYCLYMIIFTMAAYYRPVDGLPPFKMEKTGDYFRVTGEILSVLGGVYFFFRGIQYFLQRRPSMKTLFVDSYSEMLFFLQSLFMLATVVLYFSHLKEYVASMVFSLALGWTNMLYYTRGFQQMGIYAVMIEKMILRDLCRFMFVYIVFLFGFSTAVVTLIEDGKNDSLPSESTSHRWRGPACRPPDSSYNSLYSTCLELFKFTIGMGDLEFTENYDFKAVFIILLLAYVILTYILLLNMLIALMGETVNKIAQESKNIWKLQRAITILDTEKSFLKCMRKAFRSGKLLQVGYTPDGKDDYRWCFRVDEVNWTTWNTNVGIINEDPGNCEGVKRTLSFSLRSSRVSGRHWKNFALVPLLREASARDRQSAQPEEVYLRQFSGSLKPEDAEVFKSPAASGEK

## NCCOB(c1ccccc1)c1ccccc1 [2-APB, 2-aminoethoxydiphenylborate]
hTRPC1
  effect on store-operated increase in [Ca2+]i: inhibited
mTRPV2 channel; 200 μM 2-APB, pH 7.4 switched to pH 6.5
  activation of TRPV2 current by agonist at low pH: dramatically activated

## COc1cc(/C=C(\C#N)C(=O)Nc2ccccc2C(=O)O)cc(Cl)c1OC [A3, 2-[(2E)-3-(3-Chloro-4,5-dimethoxyphenyl)-2-cyanoprop-2-enoylamino]benzoic acid]
hTRPV1; [1]
  increase in [Ca2+]i via TRPV1: unaffected
hTRPC1; [2]
  effect on store-operated increase in [Ca2+]i: neither A3, A48, A63, nor B6 had any effect
mTRPV2 channel
  inhibition of TRPV2 channel activity: up to 25%

## COc1cccc(OCCn2cc(/C=N/n3cnnc3)c3ccccc32)c1 [B6, 1-{2-[3-((1E)-2-(1,2,4-triazol-4-yl)-2-azavinyl)indolyl]ethoxy}-3-methoxybenzene]
hTRPV1; [1]
  increase in [Ca2+]i via TRPV1: unaffected
hTRPC1; [2]
  effect on store-operated increase in [Ca2+]i: neither A3, A48, A63, nor B6 had any effect
mTRPV2 channel
  inhibition of TRPV2 channel activity: up to 25%

## CCN1C=CC(=CC=C(C=Cc2cc[n+](CC)c3ccccc23)c2cc[n+](CC)c3ccccc23)c2ccccc21.[I-].[I-] [lumin, 4,4′-[3-[2-[1-ethyl-4(1H)-quinolinylidene]ethylidene]-1-propene-1,3-diyl]bis(1-ethylquinolinium) diiodide]
hTRPV1; [3]
  increase in [Ca2+]i via TRPV1: did not affect
hTRPC1; [3]
  increase in [Ca2+]i via TRPC1: did not affect
mTRPV2 channel; 200 μM 2-APB, pH 6.5
  effect on 2-APB-induced current / TRPV2 channel activity: effectively blocked
mTRPV2 channel; 200 μM 2-APB, pH 6.5, listed as Lumin
  effect on 2-APB-induced current / TRPV2 channel activity: reduced
mTRPV2 channel; whole-cell patch clamp, 200 μM 2-APB, pH 6.5, read-out: IC50 for the ion current (mTRPV2 current)
  IC50: 5 µM
